# Measurements from ChEMBL document CHEMBL4373740, “Synthesis and biological evaluation of new MET inhibitors with 1,6-naphthyridinone scaffold” (Eur J Med Chem, 2020).
# What was measured:
# [1] = target: Serine/threonine-protein kinase PLK1 (Homo sapiens) (UniProt P53350); test: Inhibition of recombinant full length human His-tagged PLK1 expressed in baculovirus expression system at 1 uM using biotin as substrate preincubated for 5 mins followed by substrate addition and measured after 30 to 60 mins in presence of ATP by HTRF assay relative to control
# Sequence of Serine/threonine-protein kinase PLK1 (Homo sapiens) (P53350 whole entry): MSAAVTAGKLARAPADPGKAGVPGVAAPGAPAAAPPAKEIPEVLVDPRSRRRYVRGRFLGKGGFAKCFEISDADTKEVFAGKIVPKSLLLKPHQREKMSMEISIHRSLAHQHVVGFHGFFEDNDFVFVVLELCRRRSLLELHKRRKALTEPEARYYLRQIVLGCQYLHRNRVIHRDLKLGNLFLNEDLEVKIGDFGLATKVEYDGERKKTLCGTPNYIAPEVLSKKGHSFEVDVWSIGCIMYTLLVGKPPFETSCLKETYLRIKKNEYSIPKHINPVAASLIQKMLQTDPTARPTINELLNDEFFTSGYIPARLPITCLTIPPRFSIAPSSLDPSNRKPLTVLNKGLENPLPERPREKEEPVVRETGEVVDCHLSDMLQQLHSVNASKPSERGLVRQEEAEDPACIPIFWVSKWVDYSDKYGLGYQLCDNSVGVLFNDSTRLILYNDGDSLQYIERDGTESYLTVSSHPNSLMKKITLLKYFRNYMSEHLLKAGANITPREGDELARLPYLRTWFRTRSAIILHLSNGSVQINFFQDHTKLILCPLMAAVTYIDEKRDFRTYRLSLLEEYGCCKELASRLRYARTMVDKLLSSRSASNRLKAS
# [2] = Volume of distribution in Sprague-Dawley rat at 1.0 mg/kg, iv measured for 5 min to 72 hrs by LC-MS/MS analysis; format: ADME, organism-based; conditions: in vivo
# [3] = target: Tyrosine-protein kinase JAK3 (Homo sapiens) (UniProt P52333); test: Inhibition of recombinant full length human GST-tagged JAK3 expressed in baculovirus expression system at 1 uM using biotin as substrate preincubated for 5 mins followed by substrate addition and measured after 30 to 60 mins in presence of ATP by HTRF assay relative to control
# [4] = target: Tyrosine-protein kinase receptor TYRO3 (Homo sapiens, UniProt Q06418); test: (§1) Inhibition of recombinant human GST-tagged RSE catalytic domain (451 to 890 residues) expressed in baculovirus expression system using biotin as substrate preincubated for 5 mins followed by substrate addition and measured after 30 to 60 mins in presence of ATP by HTRF assay
# Sequence of Tyrosine-protein kinase receptor TYRO3 (Q06418 whole entry, the tested form may be a part): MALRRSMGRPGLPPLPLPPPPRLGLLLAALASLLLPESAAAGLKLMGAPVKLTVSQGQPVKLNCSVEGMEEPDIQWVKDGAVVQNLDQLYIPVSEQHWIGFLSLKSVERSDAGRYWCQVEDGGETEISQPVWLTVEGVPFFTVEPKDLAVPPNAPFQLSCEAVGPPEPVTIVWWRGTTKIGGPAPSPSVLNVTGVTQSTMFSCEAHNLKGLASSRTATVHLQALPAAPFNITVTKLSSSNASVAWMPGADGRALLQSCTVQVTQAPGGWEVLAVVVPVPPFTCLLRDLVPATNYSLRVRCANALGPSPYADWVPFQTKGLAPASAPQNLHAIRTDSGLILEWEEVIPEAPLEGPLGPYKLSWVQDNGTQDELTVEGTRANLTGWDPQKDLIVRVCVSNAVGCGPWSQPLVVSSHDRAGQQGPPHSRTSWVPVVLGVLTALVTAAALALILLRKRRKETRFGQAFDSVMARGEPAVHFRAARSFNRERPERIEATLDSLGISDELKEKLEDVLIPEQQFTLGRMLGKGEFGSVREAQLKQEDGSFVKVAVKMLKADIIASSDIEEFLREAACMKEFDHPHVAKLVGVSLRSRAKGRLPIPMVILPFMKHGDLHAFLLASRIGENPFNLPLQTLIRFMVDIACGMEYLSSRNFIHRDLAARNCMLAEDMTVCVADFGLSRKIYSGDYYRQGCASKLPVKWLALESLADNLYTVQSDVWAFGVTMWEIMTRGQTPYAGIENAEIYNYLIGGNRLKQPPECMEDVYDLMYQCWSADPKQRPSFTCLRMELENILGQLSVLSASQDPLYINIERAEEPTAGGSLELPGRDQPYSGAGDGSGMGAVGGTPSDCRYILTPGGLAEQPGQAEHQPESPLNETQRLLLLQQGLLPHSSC
# [5] = Volume of distribution in Sprague-Dawley rat at 5.0 mg/kg, ig measured for 15 min to 72 hrs by LC-MS/MS analysis; format: ADME, organism-based; conditions: in vivo, po
# [6] = target: Mitogen-activated protein kinase 14 (Homo sapiens) (UniProt Q16539); test: Inhibition of recombinant full length human GST-tagged MAPK14 expressed in Escherichia coli at 1 uM using biotin as substrate preincubated for 5 mins followed by substrate addition and measured after 30 to 60 mins in presence of ATP by HTRF assay relative to control
# [7] = target: Tyrosine-protein kinase JAK1 (Homo sapiens) (UniProt P23458); test: Inhibition of recombinant full length human GST-tagged JAK1 expressed in baculovirus expression system at 1 uM using biotin as substrate preincubated for 5 mins followed by substrate addition and measured after 30 to 60 mins in presence of ATP by HTRF assay relative to control
# [8] = target: Serine/threonine-protein kinase pim-1 (Homo sapiens) (UniProt P11309); test: Inhibition of recombinant full length human His-tagged PIM1 expressed in baculovirus expression system at 1 uM using biotin as substrate preincubated for 5 mins followed by substrate addition and measured after 30 to 60 mins in presence of ATP by HTRF assay relative to control
# Sequence of Serine/threonine-protein kinase pim-1 (Homo sapiens) (P11309 whole entry, looked up, the tested form may be a part): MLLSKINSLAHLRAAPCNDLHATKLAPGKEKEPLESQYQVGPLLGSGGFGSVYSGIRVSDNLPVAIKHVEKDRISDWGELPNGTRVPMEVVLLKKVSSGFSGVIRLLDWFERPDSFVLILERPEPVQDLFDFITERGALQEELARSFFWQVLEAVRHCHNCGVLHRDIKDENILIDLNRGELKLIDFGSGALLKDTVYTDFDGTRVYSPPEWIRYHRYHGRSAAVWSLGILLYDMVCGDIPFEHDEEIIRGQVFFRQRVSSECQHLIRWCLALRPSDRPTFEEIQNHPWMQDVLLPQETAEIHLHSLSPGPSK
# [9] = target: Hepatocyte growth factor receptor (Homo sapiens, UniProt P08581); test: Inhibition of purified recombinant MET kinase domain (unknown origin) using biotin as substrate preincubated for 5 mins followed by substrate addition and measured after 30 to 60 mins in presence of ATP by HTRF assay
# Sequence of Hepatocyte growth factor receptor (P08581 whole entry, the tested form may be a part): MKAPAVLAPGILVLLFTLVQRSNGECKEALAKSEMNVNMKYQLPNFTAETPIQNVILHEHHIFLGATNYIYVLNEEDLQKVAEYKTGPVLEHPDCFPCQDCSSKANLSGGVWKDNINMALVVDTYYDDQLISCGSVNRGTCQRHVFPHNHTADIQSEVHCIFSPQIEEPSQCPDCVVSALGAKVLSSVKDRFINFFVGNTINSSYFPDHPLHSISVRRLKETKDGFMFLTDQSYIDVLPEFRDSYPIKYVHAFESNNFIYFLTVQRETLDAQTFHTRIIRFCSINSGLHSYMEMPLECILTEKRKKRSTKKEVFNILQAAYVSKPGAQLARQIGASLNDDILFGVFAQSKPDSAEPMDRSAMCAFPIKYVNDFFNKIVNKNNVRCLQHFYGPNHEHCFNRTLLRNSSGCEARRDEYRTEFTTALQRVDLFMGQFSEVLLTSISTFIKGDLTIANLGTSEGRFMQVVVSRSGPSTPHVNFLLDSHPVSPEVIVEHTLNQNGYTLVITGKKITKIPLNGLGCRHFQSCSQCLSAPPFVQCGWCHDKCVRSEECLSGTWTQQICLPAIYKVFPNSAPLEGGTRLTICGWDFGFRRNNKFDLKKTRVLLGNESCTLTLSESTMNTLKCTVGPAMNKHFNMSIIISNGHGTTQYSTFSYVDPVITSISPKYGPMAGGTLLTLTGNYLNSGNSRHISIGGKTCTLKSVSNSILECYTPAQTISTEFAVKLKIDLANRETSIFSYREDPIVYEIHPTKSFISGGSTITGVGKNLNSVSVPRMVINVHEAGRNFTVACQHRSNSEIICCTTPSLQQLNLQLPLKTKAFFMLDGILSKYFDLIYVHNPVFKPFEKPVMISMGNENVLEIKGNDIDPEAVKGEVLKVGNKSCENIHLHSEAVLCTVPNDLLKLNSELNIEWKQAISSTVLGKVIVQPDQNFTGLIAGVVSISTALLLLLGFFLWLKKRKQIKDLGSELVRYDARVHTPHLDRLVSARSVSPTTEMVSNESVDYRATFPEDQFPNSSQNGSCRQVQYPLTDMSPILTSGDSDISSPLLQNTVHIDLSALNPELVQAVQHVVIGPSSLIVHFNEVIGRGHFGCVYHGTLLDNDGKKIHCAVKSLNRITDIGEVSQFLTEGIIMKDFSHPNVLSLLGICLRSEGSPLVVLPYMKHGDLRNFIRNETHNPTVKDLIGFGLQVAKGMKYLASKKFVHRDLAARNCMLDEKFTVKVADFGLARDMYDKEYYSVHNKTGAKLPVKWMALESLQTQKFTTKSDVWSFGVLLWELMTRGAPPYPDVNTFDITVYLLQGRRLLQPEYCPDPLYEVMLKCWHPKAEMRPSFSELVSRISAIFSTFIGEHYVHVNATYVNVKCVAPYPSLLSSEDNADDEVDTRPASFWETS
# [10] = species on record: Homo sapiens; test: Selectivity index, ratio of IC50 for purified recombinant VEGFR2 kinase domain (unknown origin) to IC50 for purified recombinant MET kinase domain (unknown origin)
# [11] = target: Inhibitor of nuclear factor kappa-B kinase subunit beta (Homo sapiens) (UniProt O14920); test: Inhibition of recombinant full length human GST-tagged IKBKB expressed in baculovirus expression system at 1 uM using biotin as substrate preincubated for 5 mins followed by substrate addition and measured after 30 to 60 mins in presence of ATP by HTRF assay relative to control
# Sequence of Inhibitor of nuclear factor kappa-B kinase subunit beta (Homo sapiens) (O14920 whole entry): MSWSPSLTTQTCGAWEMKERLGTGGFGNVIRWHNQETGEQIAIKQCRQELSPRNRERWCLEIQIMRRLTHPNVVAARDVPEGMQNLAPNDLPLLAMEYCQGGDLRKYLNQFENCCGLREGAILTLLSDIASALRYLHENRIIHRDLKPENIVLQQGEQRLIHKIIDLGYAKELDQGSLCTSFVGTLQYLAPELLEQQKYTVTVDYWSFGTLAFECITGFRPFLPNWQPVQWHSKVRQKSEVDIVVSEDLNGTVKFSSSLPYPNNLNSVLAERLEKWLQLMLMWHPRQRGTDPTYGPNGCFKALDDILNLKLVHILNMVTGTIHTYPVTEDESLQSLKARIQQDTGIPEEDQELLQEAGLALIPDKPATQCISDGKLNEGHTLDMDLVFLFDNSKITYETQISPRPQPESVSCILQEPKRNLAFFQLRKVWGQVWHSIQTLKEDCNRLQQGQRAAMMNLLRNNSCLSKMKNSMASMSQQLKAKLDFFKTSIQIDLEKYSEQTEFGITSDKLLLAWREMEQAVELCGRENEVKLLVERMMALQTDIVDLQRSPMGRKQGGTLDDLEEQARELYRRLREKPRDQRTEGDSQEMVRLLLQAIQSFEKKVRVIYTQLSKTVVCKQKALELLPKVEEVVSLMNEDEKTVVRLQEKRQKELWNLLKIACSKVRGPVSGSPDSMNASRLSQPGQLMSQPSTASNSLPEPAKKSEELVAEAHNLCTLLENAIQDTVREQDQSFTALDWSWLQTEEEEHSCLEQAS
# [12] = Clearance in Sprague-Dawley rat at 5.0 mg/kg, ig measured for 15 min to 72 hrs by LC-MS/MS analysis; format: ADME, organism-based; conditions: in vivo, po
# [13] = target: Mast/stem cell growth factor receptor Kit (Homo sapiens) (UniProt P10721); test: Inhibition of recombinant human N-terminal GST-tagged c-Kit (544 to end residues) expressed in baculovirus infected Sf21 insect cells at 1 uM using biotin as substrate preincubated for 5 mins followed by substrate addition and measured after 30 to 60 mins in presence of ATP by HTRF assay relative to control
# [14] = target: Glycogen synthase kinase-3 beta (Homo sapiens) (UniProt P49841); test: Inhibition of GSK3beta (unknown origin) at 1 uM using biotin as substrate preincubated for 5 mins followed by substrate addition and measured after 30 to 60 mins in presence of ATP by HTRF assay relative to control
# [15] = target: Dual specificity tyrosine-phosphorylation-regulated kinase 3 (Homo sapiens) (UniProt O43781); test: Inhibition of recombinant human GST-tagged DYRK3 expressed in baculovirus system at 1 uM using biotin as substrate preincubated for 5 mins followed by substrate addition and measured after 30 to 60 mins in presence of ATP by HTRF assay relative to control
# [16] = Half life in Sprague-Dawley rat at 1.0 mg/kg, iv measured for 5 min to 72 hrs by LC-MS/MS analysis; format: ADME, organism-based; conditions: in vivo
# [17] = target: High affinity nerve growth factor receptor (Homo sapiens, UniProt P04629); test: Inhibition of recombinant human His-tagged TRKA catalytic domain (441 to 796 residues) expressed in baculovirus expression system using biotin as substrate preincubated for 5 mins followed by substrate addition and measured after 30 to 60 mins in presence of ATP by HTRF assay
# Sequence of High affinity nerve growth factor receptor (P04629 whole entry, the tested form may be a part): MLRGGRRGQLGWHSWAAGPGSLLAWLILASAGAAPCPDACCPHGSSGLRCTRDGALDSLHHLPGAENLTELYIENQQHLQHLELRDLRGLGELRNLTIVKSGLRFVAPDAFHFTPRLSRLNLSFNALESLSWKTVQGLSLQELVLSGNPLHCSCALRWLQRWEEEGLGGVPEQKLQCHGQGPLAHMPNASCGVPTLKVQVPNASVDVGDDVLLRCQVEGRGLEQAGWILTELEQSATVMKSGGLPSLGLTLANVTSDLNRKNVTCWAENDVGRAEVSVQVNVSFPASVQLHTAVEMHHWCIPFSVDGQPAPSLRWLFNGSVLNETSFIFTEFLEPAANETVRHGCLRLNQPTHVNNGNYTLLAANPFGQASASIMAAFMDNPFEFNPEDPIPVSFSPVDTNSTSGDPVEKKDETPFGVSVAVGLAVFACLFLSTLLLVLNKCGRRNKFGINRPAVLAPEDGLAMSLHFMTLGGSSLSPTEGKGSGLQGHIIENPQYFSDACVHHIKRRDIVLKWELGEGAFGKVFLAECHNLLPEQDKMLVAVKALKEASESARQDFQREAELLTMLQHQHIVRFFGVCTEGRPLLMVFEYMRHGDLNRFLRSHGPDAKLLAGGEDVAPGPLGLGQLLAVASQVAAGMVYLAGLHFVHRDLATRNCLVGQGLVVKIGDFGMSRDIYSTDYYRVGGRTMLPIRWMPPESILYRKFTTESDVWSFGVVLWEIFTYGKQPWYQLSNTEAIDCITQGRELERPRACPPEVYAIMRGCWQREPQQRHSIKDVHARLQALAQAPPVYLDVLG
# [18] = target: Angiopoietin-1 receptor (Homo sapiens, UniProt Q02763); test: (§2) Inhibition of recombinant human GST-tagged TEK (817 to 1101 residues) expressed in baculovirus expression system at 1 uM using biotin as substrate preincubated for 5 mins followed by substrate addition and measured after 30 to 60 mins in presence of ATP by HTRF assay relative to control
# [19] = target: Tyrosine-protein kinase receptor TYRO3 (Homo sapiens) (UniProt Q06418); test: as §1, with “system at 1 uM” for “system”, “assay relative to control” for “assay”
# Sequence of Tyrosine-protein kinase receptor TYRO3 (Homo sapiens) (Q06418 whole entry): as the sequence (Q06418 whole entry, the tested form may be a part) above
# [20] = target: CDK2/Cyclin A2 (Homo sapiens) (UniProt P24941+P20248); test: Inhibition of recombinant full length human His-tagged CDK2/Cyclin A expressed in baculovirus expression system at 1 uM using biotin as substrate preincubated for 5 mins followed by substrate addition and measured after 30 to 60 mins in presence of ATP by HTRF assay relative to control
# [21] = target: Tyrosine-protein kinase Fes/Fps (Homo sapiens) (UniProt P07332); test: Inhibition of recombinant human His-tagged FES expressed in baculovirus system at 1 uM using biotin as substrate preincubated for 5 mins followed by substrate addition and measured after 30 to 60 mins in presence of ATP by HTRF assay relative to control
# [22] = test system: MKN-45; test: Antiproliferative activity against human MKN45 cells at 10 uM incubated for 72 hrs by MTT assay relative to control; format: functional; conditions: MKN-45, 72 h
# [23] = Half life in Sprague-Dawley rat at 5.0 mg/kg, ig measured for 15 min to 72 hrs by LC-MS/MS analysis; format: ADME, organism-based; conditions: in vivo, po
# [24] = target: Vascular endothelial growth factor receptor 1 (Homo sapiens) (UniProt P17948); test: as §2, with “FLT1 catalytic domain (781” for “TEK (817”, “1338” for “1101”
# [25] = target: Tyrosine-protein kinase Lck (Homo sapiens) (UniProt P06239); test: Inhibition of recombinant full length human His-tagged LCK expressed in baculovirus expression system at 1 uM using biotin as substrate preincubated for 5 mins followed by substrate addition and measured after 30 to 60 mins in presence of ATP by HTRF assay relative to control
compound,measurement,setting,value
Cn1cc(-c2ccc(F)cc2)c(=O)c2c(Nc3ccc(Oc4ccnc(NC(=O)C5CC5)c4)c(F)c3)nccc21,inhibition,[1],< 50%
same,Vd,[2],0.4 L/kg
same,inhibition,[3],< 50%
same,IC50,[4],41.1 nM
same,Vd,[5],0.6 L/kg
same,inhibition,[6],< 50%
same,inhibition,[7],< 50%
same,inhibition,[8],< 50%
same,IC50,[9],7.1 nM
same,Ratio IC50,[10],3230
same,inhibition,[11],< 50%
same,CL/F,[12],0.333 mL/min/kg
same,inhibition,[13],< 50%
same,inhibition,[14],< 50%
same,inhibition,[15],< 50%
same,half-life,[16],25.4 h
same,IC50,[17],32.9 nM
same,inhibition,[18],50 to 79%
same,inhibition,[19],> 80%
same,inhibition,[20],< 50%
same,inhibition,[21],< 50%
same,inhibition at 10 µM,[22],30.9%
same,half-life,[23],20.6 h
same,inhibition,[24],< 50%
same,inhibition,[25],50 to 79%
